The values that follow come from ChEMBL document CHEMBL6092168, “Identification of novel indolinone derivatives as CTSC inhibitors to treat inflammatory bowel disease by modulating inflammatory factors” (Eur J Med Chem, 2024).

Active and inactive are the calls of the source.

The test system of series [1] is Mus musculus. As to the kind of experiment: Anti-inflammatory activity in DSS-induced ulcerative colitis male C57BL/6 mouse model assessed as reduction in disease activity index (DAI) score at 60 mg/kg administered via gavage for 10 days. It counts as functional, organism-based. Conditions: time 10.0 day.
Series [2] in a line: AUC (0 to infinity) in male Sprague-Dawley rat at 2 mg/kg, iv measured at 5 to 1440 mins by LC-MS/MS analysis. It is filed as ADME, organism-based. Conditions: in vivo, time 5-1440 min.
Series [3] has as its system Mus musculus. As to the kind of experiment: Anti-inflammatory activity in DSS-induced ulcerative colitis male C57BL/6 mouse model assessed as increase in body weight at 60 mg/kg administered via gavage for 10 days. It is filed as functional, organism-based. Conditions: time 10.0 day.
The subject of series [4] is RAW264.7. As to the kind of experiment: Anti-inflammatory activity in LPS-stimulated mouse RAW264.7 cells assessed as reduction in GM-CSF production incubated for 24 hrs by ELISA. It is filed as functional, cell-based. Conditions: dose 0.62-5 µM. On the technique in general: ELISA stands for enzyme-linked immunosorbent assay.
Series [5] deals with T1, Dipeptidyl peptidase 1 (Mus musculus) (UniProt P97821).
T1 sequence (whole entry): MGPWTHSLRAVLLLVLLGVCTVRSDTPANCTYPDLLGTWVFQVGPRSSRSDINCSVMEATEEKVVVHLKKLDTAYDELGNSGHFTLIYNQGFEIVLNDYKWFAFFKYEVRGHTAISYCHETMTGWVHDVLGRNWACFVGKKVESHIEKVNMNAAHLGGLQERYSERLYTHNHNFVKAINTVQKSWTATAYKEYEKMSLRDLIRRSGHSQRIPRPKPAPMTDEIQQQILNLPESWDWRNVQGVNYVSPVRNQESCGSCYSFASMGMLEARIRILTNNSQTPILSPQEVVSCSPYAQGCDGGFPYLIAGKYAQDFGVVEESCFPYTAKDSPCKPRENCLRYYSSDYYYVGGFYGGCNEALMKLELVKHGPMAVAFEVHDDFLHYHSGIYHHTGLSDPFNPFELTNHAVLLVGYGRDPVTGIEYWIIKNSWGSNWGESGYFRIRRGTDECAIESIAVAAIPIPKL
As to the kind of experiment: In vivo inhibition of Cathepsin C in C57BL/6 mouse assessed as reduction in cathepsin C activity in blood administered orally once daily for 6 days by fluorescence based microplate reader. It is filed as functional, organism-based. Conditions: dose 5-30 mg/kg, route po, time 6.0 day.

A short description of series [6]: Half life in male Sprague-Dawley rat at 2 mg/kg, iv measured at 5 to 1440 mins by LC-MS/MS analysis. It is filed as ADME, organism-based. Conditions: in vivo, time 5-1440 min.
Series [7] has as its target T2, Neutrophil elastase (Mus musculus) (UniProt Q3UP87).
T2 sequence (whole entry): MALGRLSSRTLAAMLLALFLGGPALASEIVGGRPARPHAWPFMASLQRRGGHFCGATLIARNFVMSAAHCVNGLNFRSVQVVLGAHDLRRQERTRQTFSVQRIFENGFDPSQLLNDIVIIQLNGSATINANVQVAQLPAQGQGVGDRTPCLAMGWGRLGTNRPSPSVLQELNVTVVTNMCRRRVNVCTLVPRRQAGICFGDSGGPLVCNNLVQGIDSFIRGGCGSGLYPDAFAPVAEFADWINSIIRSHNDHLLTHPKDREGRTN
As to the kind of experiment: Induction of neutrophil elastase degradation in C57BL/6 mouse bone marrow cells assessed as remaining activity at 10 uM incubated for 12 hrs by Western blot analysis relative to control. It is filed as cell-based. Conditions: Bone marrow cell.

Series [8] deals with Mus musculus. As to the kind of experiment: Anti-inflammatory activity in DSS-induced ulcerative colitis male C57BL/6 mouse model assessed as reduction in cathepsin G level in colon at 15 to 30 mg/kg administered via gavage for 10 days. It is filed as functional, organism-based. Conditions: dose 15-30 mg/kg, time 10.0 day.
Series [9] can be described thus: Half life in male Sprague-Dawley rat at 10 mg/kg, po measured at 5 to 1440 mins by LC-MS/MS analysis. It is filed as ADME, organism-based. Conditions: in vivo, time 5-1440 min.
The target in series [10] is Dipeptidyl peptidase 1 (Homo sapiens, UniProt P53634). As to the kind of experiment: Inhibition of human recombinant Cathepsin C using Gly-Phe-AFC as substrate preincubated for 3 hrs followed by substrate addition and measured after 1 hr by fluorescence based multifunctional microplate reader analysis.
For series [11], the target named is T3, Myeloblastin (Mus musculus) (UniProt Q61096).
T3 sequence (whole entry): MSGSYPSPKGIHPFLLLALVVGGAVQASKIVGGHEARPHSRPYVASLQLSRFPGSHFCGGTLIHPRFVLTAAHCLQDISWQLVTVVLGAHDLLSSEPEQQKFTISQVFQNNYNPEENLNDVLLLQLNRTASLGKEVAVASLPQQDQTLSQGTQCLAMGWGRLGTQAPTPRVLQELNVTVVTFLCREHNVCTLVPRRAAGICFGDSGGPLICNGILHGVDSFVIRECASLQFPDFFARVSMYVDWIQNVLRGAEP
As to the kind of experiment: Induction of proteinase 3 degradation in C57BL/6 mouse bone marrow cells at 10 uM incubated for 24 hrs by Western blot analysis. Conditions: Bone marrow cell. It is filed as cell-based. In general terms: Immunoblotting shows a protein as a band on a membrane.

The target of series [12] is T4, Cathepsin G (Mus musculus) (UniProt P28293).
T4 sequence (whole entry): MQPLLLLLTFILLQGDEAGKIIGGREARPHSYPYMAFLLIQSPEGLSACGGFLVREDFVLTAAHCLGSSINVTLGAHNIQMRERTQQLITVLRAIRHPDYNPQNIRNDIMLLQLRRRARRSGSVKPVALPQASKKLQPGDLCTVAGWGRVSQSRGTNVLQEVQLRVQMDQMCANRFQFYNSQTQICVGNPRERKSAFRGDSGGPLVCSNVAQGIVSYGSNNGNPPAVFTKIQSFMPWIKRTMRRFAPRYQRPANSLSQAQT
As to the kind of experiment: In vivo inhibition of Cathepsin G in C57BL/6 mouse assessed as reduction in cathepsin G activity in blood at 30 mg/kg, po administered once daily for 6 days by fluorescence based microplate reader relative to control. It is filed as functional, organism-based. Conditions: time 6.0 day.

Series [13] concerns Mus musculus. As to the kind of experiment: Anti-inflammatory activity in DSS-induced ulcerative colitis male C57BL/6 mouse model assessed as reduction in IL- 6 expression in serum administered via gavage for 10 days by ELISA. It counts as functional, organism-based. Conditions: dose 15-60 mg/kg, time 10.0 day.
Series [14] addresses T5, Myeloblastin (Homo sapiens) (UniProt P24158).
T5 sequence (whole entry): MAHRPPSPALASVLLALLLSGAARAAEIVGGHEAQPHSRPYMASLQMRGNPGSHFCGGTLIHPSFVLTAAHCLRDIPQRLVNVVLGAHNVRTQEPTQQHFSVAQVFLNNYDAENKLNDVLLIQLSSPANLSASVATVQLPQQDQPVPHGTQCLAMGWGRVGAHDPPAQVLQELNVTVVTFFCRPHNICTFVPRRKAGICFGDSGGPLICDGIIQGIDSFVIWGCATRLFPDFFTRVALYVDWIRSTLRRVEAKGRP
As to the kind of experiment: Inhibition of proteinase 3 in human U-937 cells using aminobenzoyl-Val-Ala-Asp-Cys-Ala-Asp-Gln-ethylenediamine 2,4-dinitrophenyl as substrate at 10 uM incubated for 5 days by fluorescence based microplate reader analysis relative to control. It counts as cell-based. Conditions: time 5.0 day.

Sequence of Dipeptidyl peptidase 1 (P53634 25-134 limits assumed): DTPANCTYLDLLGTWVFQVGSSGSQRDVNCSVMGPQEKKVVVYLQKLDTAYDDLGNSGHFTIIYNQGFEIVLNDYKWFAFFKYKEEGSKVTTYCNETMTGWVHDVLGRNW
Sequence of Dipeptidyl peptidase 1 (P53634 231-394 limits assumed): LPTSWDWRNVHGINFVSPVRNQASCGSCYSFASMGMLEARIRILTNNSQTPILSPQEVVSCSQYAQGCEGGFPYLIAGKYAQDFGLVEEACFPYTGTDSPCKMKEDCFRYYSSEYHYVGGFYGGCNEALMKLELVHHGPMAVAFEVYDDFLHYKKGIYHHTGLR
Sequence of Dipeptidyl peptidase 1 (P53634 395-463 limits assumed): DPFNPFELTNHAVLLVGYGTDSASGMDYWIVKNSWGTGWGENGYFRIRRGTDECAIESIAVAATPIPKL

By AUC is commonly meant concentration integrated over time. Lower therefore signals low exposure. A word on the inhibition: it is the change of the read-out against control, counted positive when it falls. As a reminder, the half-life is the time needed for the level to fall by half in the phase considered. Higher therefore signals slow loss. What is called IC50 is the concentration that inhibits the measured activity by half. On to `O=C1Nc2c(cccc2-c2ccc(NC3CCOCC3)cc2)/C1=C/c1ccnc2ccccc12`, for which the result in series [1], in series [3] and in series [11] was Active. In series [2], this compound returned an AUC of 915.64 ng·h/mL. In addition, the Activity result in [4] is “Dose-dependent-effect”; in series [7], 75%; in [13], “Dose-dependent-effect; Significant Reduction Observed In High Dose Group”. Besides, the inhibition result in series [5] is “Dose-dependent-effect”; in series [12], 39.5%; in series [14] it was 33.1%. This compound showed a t1/2 in series [6] of 2.26 h. The result in series [8] was inactive. The compound also had a half-life in [9] of 1.76 h. Also, the IC50 in series [10] stood at 84.3 nM.
